In patent US6576614B1, “Peptide analogs as irreversible interleukin-1β protease inhibitors” (Vertex Pharmaceuticals Incorporated, priority 1993, dated 2003):

What was measured:
IL-1β protease = biological target: T1, IL-1β protease (Homo sapiens, UniProt P29466); assay: IL-1β protease inhibition activity (HPLC assay, substrate TRITC-AYVHDAPVRS-NH2); assay type: biochemical; details: partially purified IL-1β protease; 15 min preincubation with inhibitor at 37° C., 60 min reaction
T1 construct: Partially purified IL-1β protease is stored at −80° C
T1 sequence (P29466 120-297 limits assumed): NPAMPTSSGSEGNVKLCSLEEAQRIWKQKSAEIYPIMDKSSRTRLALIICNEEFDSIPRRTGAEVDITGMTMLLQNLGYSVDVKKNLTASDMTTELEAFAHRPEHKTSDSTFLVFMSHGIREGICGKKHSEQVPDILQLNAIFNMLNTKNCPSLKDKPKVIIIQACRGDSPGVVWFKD
T1 sequence (P29466 317-404 limits assumed): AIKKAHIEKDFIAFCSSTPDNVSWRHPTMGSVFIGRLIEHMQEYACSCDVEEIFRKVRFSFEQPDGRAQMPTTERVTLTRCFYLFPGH
Protocol: Compounds of the present invention were tested for IL-1β protease inhibition activity according to the following protocol:
Partially purified IL-1β protease is stored at −80° C., thawed on ice, and preincubated for 10 minutes at 37° C. with 2.5 mM dithiothreitol in a buffer solution containing 10 mM Tris-HCl (pH 8.0) and 25% (v/w) glycerol. Inhibitors are prepared as stock solutions in dimethyl sulfoxide (DMSO). The protease is preincubated with inhibitor in a volume of […] in a 1.5 ml polypropylene microcentrifuge tube for 15 minutes at 37° C. The volume of compound added to the assay is adjusted to yield a DMSO concentration in the preincubation of <15% (v/v). The enzyme assay is then initiated by the addition of substrate (TRITC-AYVHDAPVRS-NH2) to yield a final concentration of […] in a final volume of […]. The reaction are carried out for 60 minutes at 37° C. in the dark and are terminated by the addition of […] of 10% trifluoroacetic acid (TFA). Following the addition of […] of 0.1% TFA, the samples are analyzed by high pressure liquid chromatography using a reverse phase (C18) column and elution with an acetonitrile/water/FA gradient. Substrate and product are monitored by their absorbance at 550 nm and elute at 4.2 and 5.2 minutes, respectively.

[1] = system: mature IL-1β release from human monocytes; assay: Release of mature IL-1β from human monocytes (pulse chase assay); assay type: cell-based; details: inhibition of release of mature IL-1β; human monocytes activated with fixed S. aureus; 2-3 donors; read-out: in vivo IC50
Protocol: Compounds of the present invention were tested for their ability to block mature IL-1β release from cells (monocytes) as described in the following protocol:
Protocol for Monitoring Release of Mature IL-1β-From Human Monocytes
Human monocytes were isolated from heparinized leukopheresis units obtained through Biological Specialty Corporation (Lansdale, Pa.). Monocytes were purified by Ficoll-Hupaque (Pharmacia Fine Chemicals, Piscataway, N.J.) gradient centrifugation and more than 95% pure monocyte populations obtained by centrifugal elutriation. The assay was performed on duplicate samples of freshly isolated human monocytes, cultured in suspension at 37° C. and rotated gently in conical bottom polypropylene tubes (Sardstedt Inc., Princeton, N.J.). Human monocytes at a concentration of 5×10^6 cells/mL were resuspended in 1 mL of RPMI 1640 (a common tissue buffer from M.A. Bioproducts, Walkersyille, Md.) containing 1% fetal calf serum (FCS) (HyClone, Logan, Utah) and 50 μg/mL gentamycin (Gibco, Grand Island, N.Y.). The cells were treated either with a compound of the invention (i.e. test compound) or with a non-inhibitor (control compound, typically 0.03% DMSO) for 15 minutes and then activated with 0.01% fixed Staphylococcus aureus (The Enzyme Center, Malden, Mass.) for 1 hour. The cells were then centrifuged and resuspended in 1 mL of cysteine, methionine-free RPMI media containing 1% dialyzed FCS (Hyclone). The cells were pretreated with a test compound or control compound for 15 minutes after which 0.01% fixed S. aureus plus 100 μCi Tran 35-S label (ICN, Irvine, Calif.) was added and the cells incubated at 37° C. for 1 hour. After incubation, cells were centrifuged, washed once in phosphate buffer saline and resuspended in 1 ML RPMI containing 1% fetal calf serum The cells were again pretreated with a test or control compound for 15 minutes and then 0.01% S. aureus for 2 hours. At the end of the incubation, cells were centrifuged and supernates saved for immunoprecipitation. Cells were washed once in phosphate buffer saline and then lysed in RIPA, a continuous cell media buffer containing 2 mM phenylmethylsulfonyl fluoride, 10 mM iodoacetate, 1 μg/mL pepstatin A, 1 μg/mL leupeptin and 0.5 TIU aprotinin.
For the immunoprecipitations, an equal volume of 1% dry milk in RIPA buffer plus 50 μL of resuspended protein A sepharose CL-4B (Pharmacia, Piscataway, N.Y.) was added to supernates and 1 mL of 4% dry milk containing protein A sepharose CL-4B to cell lysates and samples rotated for 30 minutes at 4° C. Beads were then centrifuged down, samples transferred to fresh tubes and incubated overnight with 40 μg rabbit antihuman IL1B polyclonal antibody (Genzyme, Cambridge, Mass.). The IL-1β proteins were then precipitated with 70 μL protein A sepharose, resuspended in 60 μL SDS sample buffer and run on 15% […] gels. Autoradiography was performed on dried gels and the amount of radioactivity (counts per minute, cpm) quantitated using a Betascope 603 analyzer.
In the monocyte pulse chase assay, each test parameter was run in duplicate. Data was collected from the Beta Scope using a personal computer, then transferred to the VAX system for calculation of mean cpm and standard deviation of the mean. When test compounds were evaluated, the percent inhibition of release of mature IL1β was calculated as follows:
100×[1−(cells treated with stimuli+test compound−unstimulated cells)/(cells teed with stimuli+control compound−unstimulated cells)]
These % inhibition values were then used to calculate IC50 value for each compound. Since the human monocyte pulse chase assay uses primary cells from different donors, each test compound was run in 2-3 separate experiments, using monocytes from 2-3 different donors.

| Compound | IC50 (IL-1β protease) | IC50 [1] | melting point |
| --- | --- | --- | --- |
| O=C(O)C[C@H](NC(=O)OCc1ccccc1)C(=O)COC(=O)c1c(Cl)cccc1Cl [Example 38, N-benzyloxycarbonyl-L-aspartic acid 2,6-dichlorobenzoyloxymethyl ketone] | 50 nM | 10000 nM |  |
| O=C(O)C[C@H](NC(=O)OCc1ccccc1)C(=O)COC(=O)c1c(C(F)(F)F)cccc1C(F)(F)F [Example 40, N-Benzyloxycarbonyl-L-aspartic acid 2,6-ditrifluoromethyl benzoyloxymethyl ketone] | 100 nM |  |  |
| O=C(O)C[C@H](NC(=O)OCc1ccccc1)C(=O)COc1c(Cl)cccc1Cl [Example 41, N-Benzyloxycarbonyl-L-aspartic acid 2,6 dichlorophenoxymethyl ketone] | 100 nM |  |  |
| O=C(O)C[C@H](NC(=O)OCc1ccccc1)C(=O)COc1ccc(S(=O)(=O)N2CCOCC2)cc1F [Example 42, N-Benzyloxycarbonyl-L-aspartic acid 2-fluoro-4-(N-morpholinylsulfonamido)phenoxymethyl ketone] | 320 nM |  | 65 to 66 °C |
| COc1cccc(OC)c1C(=O)OCC(=O)[C@H](CC(=O)O)NC(=O)OCc1ccccc1 [Example 45, N-Benzyloxycarbonyl-L-aspartic acid 2,6-dimethoxybenzoyloxy methyl ketone] |  | ~100000 nM |  |
| O=C(O)C[C@H](NC(=O)OCc1ccccc1)C(=O)COC(=O)c1c(F)cccc1F [Example 48, N-Benzyloxycarbonyl-L-aspartic acid 2,6-difluorobenzoyloxymethyl ketone] |  | ~100000 nM |  |
| CCCCNS(=O)(=O)c1ccc(Cl)c(C(=O)OCC(=O)[C@H](CC(=O)O)NC(=O)OCc2ccccc2)c1Cl [Example 49, N-Benzyloxycarbonyl-L-aspartic acid 3-(N-butylsulfonamido)-2,6-dichlorobenzoyloxymethyl ketone] | 90 nM |  | 48 to 50 °C |
| NC(=O)CNS(=O)(=O)c1ccc(Cl)c(C(=O)OCC(=O)[C@H](CC(=O)O)NC(=O)OCc2ccccc2)c1Cl [Example 52, N-Benzyloxycarbonyl-L-aspartic acid 3-(N-[2-aminoacetamidoyl]sulfonamido)-2,6-dichlorobenzoyloxymethyl ketone] | 60 nM |  | 54 to 56 °C |
| O=C(O)C[C@H](NC(=O)OCc1ccccc1)C(=O)COC(=O)c1c(Cl)ccc(S(=O)(=O)N2CCOCC2)c1Cl [Example 53, N-Benzyloxycarbonyl-L-aspartic acid 2,6-dichloro-3-(N-morpholinylsulfonamido)benzoyloxymethyl ketone] | 90 nM |  |  |
| COC(=O)N[C@@H](C)C(=O)N[C@@H](CC(=O)O)C(=O)COC(=O)c1c(Cl)cccc1Cl [Example 54, N-Methoxycarbonyl-L-alanine-L-aspartic acid 2,6-dichlorobenzoyloxymethyl ketone] | 60 nM |  |  |
| COC(=O)N[C@@H](Cc1ccccc1)C(=O)N[C@@H](CC(=O)O)C(=O)COC(=O)c1c(Cl)cccc1Cl [Example 57, N-Methoxycarbonyl-L-phenylalanine-L-aspartic acid 2,6-dichlorobenzoyloxymethyl ketone] | 70 nM |  |  |
| CC(C)[C@H](NC(=O)OCc1ccccc1)C(=O)N[C@@H](CC(=O)O)C(=O)COC(=O)c1c(Cl)cccc1Cl [Example 61, N-Benzyloxycarbonyl-L-valine-L-aspartic acid 2,6-dichlorobenzoyloxy-methyl ketone] |  | 900 nM |  |
| CC(C)[C@H](NC(=O)OCc1ccccc1)C(=O)N[C@@H](C)C(=O)N[C@@H](CC(=O)O)C(=O)COC(=O)c1c(Cl)cccc1Cl [Example 63, N-Benzyloxycarbonyl-L-valine-L-alanine-L-aspartic acid 2,6-di-chlorobenzoyloxymethyl ketone] |  | 500 nM |  |
| O=C(O)C[C@H](NC(=O)c1ccco1)C(=O)COC(=O)c1c(Cl)cccc1Cl [Example 64, N-(2-Furonyl)carbonyl-L-aspartic acid 2,6-dichlorobenzoyloxymethyl ketone] | 140 nM |  |  |
| O=C(O)C[C@H](NC(=O)c1ccco1)C(=O)COC(=O)c1c(Cl)ccc(S(=O)(=O)N2CCOCC2)c1Cl [Example 65, N-(2-Furonyl)carbonyl-L-aspartic acid 2,6-dichloro-3-(N-morpholinylsulfonamido)benzoyloxymethyl ketone] |  | 30000 nM |  |
| CN(C)Cc1ccc(C(=O)N[C@@H](CC(=O)O)C(=O)COC(=O)c2c(Cl)cccc2Cl)cc1 [Example 68, N-(4-N,N-dimethylaminomethyl)benzoyl-L-aspartic acid 2,6-dichlorobenzoyloxymethyl ketone] | 300 nM |  | 55 to 57 °C |
| O=C(O)C[C@@H](NC(=O)OCc1ccccc1)C(=O)COC(=O)c1c(Cl)cccc1Cl [Example 69, N-Benzyloxycarbonyl-D-aspartic acid 2,6-dichlorobenzoyloxymethyl ketone] |  | 10000 nM |  |
| O=C(O)C[C@H](NC(=O)COC(=O)c1c(Cl)cccc1Cl)C(=O)COC(=O)c1c(Cl)cccc1Cl [Example 70] | 200 nM |  |  |
| CCN(CC)S(=O)(=O)c1c(F)c(F)c(OCC(=O)[C@H](CC(=O)O)NC(=O)[C@@H](NC(=O)OCc2ccccc2)C(C)C)c(F)c1F [Example 71, N-Benzyloxycarbonyl-L-valine-L-aspartic acid 4-(N,N-diethyl-sulfonamido)-2,3,5,6-tetrafluorophenoxymethyl ketone] |  | 5000 nM |  |
| N-Methoxycarbonyl-L-aspartic acid 2,6-dichlorobenzoyloxymethyl ketone [Example 67] | 80 nM |  |  |
| N-Methoxycarbonyl-L-valine-L-aspartic acid 2,6-dichlorobenzoyloxy-methyl ketone [Example 59] |  | 10000 nM |  |
